Laboratory results: BindingDB's records for doi:10.1021/jm0701019 (Abbott Laboratories, 2007)

Biological target: cAMP-dependent protein kinase catalytic subunit alpha (Bos taurus, UniProt P00517)
Assay: PKA/PKC Kinase Assay
Details: not given
Experimental: The kinase assay uses purified recombinant enzyme and a biotinylated peptide as substrate. The biotinylated peptides were immobilized on streptavidin-coated FLASH plates. After reaction, the 33P-phosphopeptide captured on the FLASH plates was measured with a TopCount Packard Instruments gamma counter (Packard Instruments, Boston, MA). IC50s were calculated using the sigmoidal curve fit with the Assay Explorer software (MDL, Los Angeles, CA).

| IC50 | SMILES |
| --- | --- |
| 15 nM | Cc1n[nH]c2ccc(-c3cncc(OC[C@@H](N)Cc4ccc(Br)cc4)c3)cc12 [5-{5-[(2S)-2-amino-3-(4-bromophenyl)propoxy]pyridin-3-yl}-3-methyl-1H-indazole] |
| > 3000 nM | Cc1n[nH]c2ccc(-c3cncc(OC[C@@H](N)Cc4cccc(OCC5CCCCC5)c4)c3)cc12 [5-{5-[(2S)-2-amino-3-[3-(cyclohexylmethoxy)phenyl]propoxy]pyridin-3-yl}-3-methyl-1H-indazole] |

Same assay, conditions: pH 7.5; 22 °C

| SMILES | IC50 |
| --- | --- |
| Cc1n[nH]c2ccc(-c3cncc(OC[C@@H](N)Cc4ccccc4)c3)cc12 [Biochemistry 469551 Compound 11] | 16 nM |
| Cc1n[nH]c2ccc(-c3cncc(OC[C@@H](N)Cc4c[nH]c5ccccc45)c3)cc12 [5-{5-[(2S)-2-amino-3-(1H-indol-3-yl)propoxy]pyridin-3-yl}-3-methyl-1H-indazole] | 6 nM |

Biological target: T1, RAC-alpha serine/threonine-protein kinase [139-480,S378A,S381A,T450D,S473D] (Homo sapiens, UniProt P31749, S378A/S381A/S473D/T450D)
T1 construct: 139-480
T1 sequence (P31749 139-480 S378A/S381A/T450D/S473D): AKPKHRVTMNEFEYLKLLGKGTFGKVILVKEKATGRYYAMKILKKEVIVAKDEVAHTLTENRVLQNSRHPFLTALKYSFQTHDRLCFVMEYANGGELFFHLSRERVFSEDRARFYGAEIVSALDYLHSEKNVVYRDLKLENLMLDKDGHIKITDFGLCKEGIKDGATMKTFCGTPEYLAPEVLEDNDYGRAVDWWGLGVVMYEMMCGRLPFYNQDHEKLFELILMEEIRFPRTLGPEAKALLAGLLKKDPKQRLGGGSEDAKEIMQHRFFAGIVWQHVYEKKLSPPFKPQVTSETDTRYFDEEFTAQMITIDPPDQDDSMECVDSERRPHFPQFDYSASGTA
Assay: Akt Kinase Assay
Details: not given
Experimental: The kinase assay uses His-Akt1 and a biotinylated peptide as substrate. The biotinylated peptides were immobilized on streptavidin-coated FLASH plates. After reaction, the 33P-phosphopeptide captured on the FLASH plates was measured with a TopCount Packard Instruments […] (Packard Instruments, Boston, MA).

| IC50 | SMILES |
| --- | --- |
| 5 nM | Cc1n[nH]c2ccc(-c3cncc(OC[C@@H](N)Cc4ccc(Br)cc4)c3)cc12 [5-{5-[(2S)-2-amino-3-(4-bromophenyl)propoxy]pyridin-3-yl}-3-methyl-1H-indazole] |
| 15.3 nM | Cc1n[nH]c2ccc(-c3cncc(OC[C@@H](N)Cc4ccccc4OC(F)(F)F)c3)cc12 [5-{5-[(2S)-2-amino-3-[2-(trifluoromethoxy)phenyl]propoxy]pyridin-3-yl}-3-methyl-1H-indazole] |
| 3.9 nM | Cc1ccc(F)cc1C[C@H](N)COc1cncc(-c2ccc3[nH]nc(C)c3c2)c1 [5-{5-[(2S)-2-amino-3-(5-fluoro-2-methylphenyl)propoxy]pyridin-3-yl}-3-methyl-1H-indazole] |
| 42 nM | Cc1n[nH]c2ccc(-c3cncc(OC[C@@H](N)Cc4ccc5c(c4)OCO5)c3)cc12 [5-{5-[(2S)-2-amino-3-(2H-1,3-benzodioxol-5-yl)propoxy]pyridin-3-yl}-3-methyl-1H-indazole] |
| 49 nM | Cc1n[nH]c2ccc(-c3cncc(OC[C@@H](N)Cc4c(F)cc(F)cc4Br)c3)cc12 [(2S)-1-(2-bromo-4,6-difluorophenyl)-3-{[5-(3-methyl-1H-indazol-5-yl)pyridin-3-yl]oxy}propan-2-amine] |
| 78 nM | Cc1n[nH]c2ccc(-c3cncc(OC[C@@H](N)Cc4cccc(OCC5CCN(C)CC5)c4)c3)cc12 [5-{5-[(2S)-2-amino-3-{3-[(1-methylpiperidin-4-yl)methoxy]phenyl}propoxy]pyridin-3-yl}-3-methyl-1H-indazole] |
| 7.2 nM | N[C@H](COc1cncc(-c2cc3cn[nH]c3cn2)c1)Cc1cccc(C(F)(F)F)c1 [(2S)-1-{[5-(1H-pyrazolo[3,4-c]pyridin-5-yl)pyridin-3-yl]oxy}-3-[3-(trifluoromethyl)phenyl]propan-2-amine] |
| 13 nM | Cc1n[nH]c2ccc(-c3cncc(OC[C@@H](N)Cc4ccc5c(c4)OC(F)(F)C(F)(F)O5)c3)cc12 [5-{5-[(2S)-2-amino-3-(2,2,3,3-tetrafluoro-2,3-dihydro-1,4-benzodioxin-6-yl)propoxy]pyridin-3-yl}-3-methyl-1H-indazole] |
| 7.7 nM | COc1ccc(F)cc1C[C@H](N)COc1cncc(-c2ccc3[nH]nc(C)c3c2)c1 [(2S)-1-(5-fluoro-2-methoxyphenyl)-3-{[5-(3-methyl-1H-indazol-5-yl)pyridin-3-yl]oxy}propan-2-amine] |
| 2.9 nM | N[C@H](COc1cncc(-c2cc3c(Cl)n[nH]c3cn2)c1)Cc1cccc(C(F)(F)F)c1 [(2S)-1-{[5-(3-chloro-1H-pyrazolo[3,4-c]pyridin-5-yl)pyridin-3-yl]oxy}-3-[3-(trifluoromethyl)phenyl]propan-2-amine] |
| 5.9 nM | Cc1n[nH]c2ccc(-c3cncc(OC[C@@H](N)Cc4cccc(Cl)c4)c3)cc12 [(2S)-1-(3-chlorophenyl)-3-{[5-(3-methyl-1H-indazol-5-yl)pyridin-3-yl]oxy}propan-2-amine] |
| 2.5 nM | Cc1cc(C[C@H](N)COc2cncc(-c3ccc4[nH]nc(C)c4c3)c2)ccc1Br [5-{5-[(2S)-2-amino-3-(4-bromo-3-methylphenyl)propoxy]pyridin-3-yl}-3-methyl-1H-indazole] |

Same assay, conditions: pH 7.5; 22 °C

| IC50 | SMILES |
| --- | --- |
| 21 nM | Cc1n[nH]c2ccc(-c3cncc(OC[C@@H](N)Cc4ccc(F)cc4F)c3)cc12 [(2S)-1-(2,4-difluorophenyl)-3-{[5-(3-methyl-1H-indazol-5-yl)pyridin-3-yl]oxy}propan-2-amine] |
| 1.4 nM | N[C@H](COc1cncc(-c2ccc3c(c2)/C(=C\c2ccco2)C(=O)N3)c1)Cc1ccccc1 [(3E)-5-{5-[(2S)-2-amino-3-phenylpropoxy]pyridin-3-yl}-3-(furan-2-ylmethylidene)-2,3-dihydro-1H-indol-2-one] |
| 8.4 nM | Cc1n[nH]c2ccc(-c3cncc(OC[C@@H](N)Cc4cccc(F)c4)c3)cc12 [5-{5-[(2S)-2-amino-3-(3-fluorophenyl)propoxy]pyridin-3-yl}-3-methyl-1H-indazole] |

| SMILES | IC50 |
| --- | --- |
| Cc1n[nH]c2ccc(-c3cncc(OC[C@@H](N)Cc4c[nH]c5ccccc45)c3)cc12 [5-{5-[(2S)-2-amino-3-(1H-indol-3-yl)propoxy]pyridin-3-yl}-3-methyl-1H-indazole] | 0.16 nM |
